Values quoted from earlier work as cited in patent publication US5973156A, “Piperidine and tetrahydropyridine derivatives” (Merck Sharp & Dome Ltd., priority 1995, dated 1999).

What was measured:
[1] = tested on: human 5-HT1D.spsb.α and 5-HT1D.spsb.β receptor subtypes
[2] = humans, therapeutic doses

CNS(=O)(=O)Cc1ccc2[nH]cc(CCN(C)C)c2c1 [sumatriptan]
discrimination between the human 5-HT1D.spsb.α and 5-HT1D.spsb.β receptor subtypes [1]: barely discriminates | adverse cardiovascular events [2]: certain adverse cardiovascular events
